Data: patent US20250215012A1, “IKZF2 DEGRADERS AND USES THEREOF” (REGENTS OF THE UNIVERSITY OF MICHIGAN, priority 2022, published 2025)

Molecular target: IKZF2 (Homo sapiens (Human), UniProt Q96SW2+Q9UKS7)
Assay: IKZF2 HiBiT Assay (Jurkat-IKZF2-HiBiT cell line)
Assay type: cell-based
Conditions: Jurkat-IKZF2-HiBiT cells, 24 hours; for DC50: read-out: HiBit assay degradation analysis DC50; for Dmax: read-out: HiBit assay degradation analysis Dmax
Outline: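 IKZF2 degradation was assessed as HiBiT luminescence in Jurkat-IKZF2-HiBiT cells, using lytic detection after 24 h of compound treatment at 37 °C, 5% CO2.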

IKZF2, sequence (Q9UKS7 whole entry): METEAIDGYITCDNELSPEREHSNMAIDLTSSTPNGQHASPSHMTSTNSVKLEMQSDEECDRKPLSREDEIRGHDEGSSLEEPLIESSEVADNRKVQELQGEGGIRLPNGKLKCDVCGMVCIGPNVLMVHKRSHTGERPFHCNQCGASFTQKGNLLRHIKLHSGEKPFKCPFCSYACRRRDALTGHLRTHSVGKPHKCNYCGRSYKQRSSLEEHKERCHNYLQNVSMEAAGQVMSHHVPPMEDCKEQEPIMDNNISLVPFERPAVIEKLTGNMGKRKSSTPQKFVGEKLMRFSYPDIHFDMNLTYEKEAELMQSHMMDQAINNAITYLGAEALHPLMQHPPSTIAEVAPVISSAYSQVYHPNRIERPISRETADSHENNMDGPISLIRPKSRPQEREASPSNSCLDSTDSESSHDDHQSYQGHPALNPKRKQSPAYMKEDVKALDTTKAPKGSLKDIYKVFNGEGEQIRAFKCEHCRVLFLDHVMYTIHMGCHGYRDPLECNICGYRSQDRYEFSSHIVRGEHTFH
IKZF2, sequence (Q96SW2 whole entry): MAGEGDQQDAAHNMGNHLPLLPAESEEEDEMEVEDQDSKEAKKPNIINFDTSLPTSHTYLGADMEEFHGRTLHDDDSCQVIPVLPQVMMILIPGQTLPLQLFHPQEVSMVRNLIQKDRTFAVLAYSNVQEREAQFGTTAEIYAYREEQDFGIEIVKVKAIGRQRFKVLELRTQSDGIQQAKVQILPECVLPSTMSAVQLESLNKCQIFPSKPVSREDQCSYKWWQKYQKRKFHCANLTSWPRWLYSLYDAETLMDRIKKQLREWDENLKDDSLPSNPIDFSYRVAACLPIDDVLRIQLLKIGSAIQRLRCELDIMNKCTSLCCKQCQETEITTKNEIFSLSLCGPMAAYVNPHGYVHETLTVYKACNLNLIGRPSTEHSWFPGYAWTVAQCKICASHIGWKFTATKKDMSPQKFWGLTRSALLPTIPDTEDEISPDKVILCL
IKZF2, sequence (Q16531 whole entry partner): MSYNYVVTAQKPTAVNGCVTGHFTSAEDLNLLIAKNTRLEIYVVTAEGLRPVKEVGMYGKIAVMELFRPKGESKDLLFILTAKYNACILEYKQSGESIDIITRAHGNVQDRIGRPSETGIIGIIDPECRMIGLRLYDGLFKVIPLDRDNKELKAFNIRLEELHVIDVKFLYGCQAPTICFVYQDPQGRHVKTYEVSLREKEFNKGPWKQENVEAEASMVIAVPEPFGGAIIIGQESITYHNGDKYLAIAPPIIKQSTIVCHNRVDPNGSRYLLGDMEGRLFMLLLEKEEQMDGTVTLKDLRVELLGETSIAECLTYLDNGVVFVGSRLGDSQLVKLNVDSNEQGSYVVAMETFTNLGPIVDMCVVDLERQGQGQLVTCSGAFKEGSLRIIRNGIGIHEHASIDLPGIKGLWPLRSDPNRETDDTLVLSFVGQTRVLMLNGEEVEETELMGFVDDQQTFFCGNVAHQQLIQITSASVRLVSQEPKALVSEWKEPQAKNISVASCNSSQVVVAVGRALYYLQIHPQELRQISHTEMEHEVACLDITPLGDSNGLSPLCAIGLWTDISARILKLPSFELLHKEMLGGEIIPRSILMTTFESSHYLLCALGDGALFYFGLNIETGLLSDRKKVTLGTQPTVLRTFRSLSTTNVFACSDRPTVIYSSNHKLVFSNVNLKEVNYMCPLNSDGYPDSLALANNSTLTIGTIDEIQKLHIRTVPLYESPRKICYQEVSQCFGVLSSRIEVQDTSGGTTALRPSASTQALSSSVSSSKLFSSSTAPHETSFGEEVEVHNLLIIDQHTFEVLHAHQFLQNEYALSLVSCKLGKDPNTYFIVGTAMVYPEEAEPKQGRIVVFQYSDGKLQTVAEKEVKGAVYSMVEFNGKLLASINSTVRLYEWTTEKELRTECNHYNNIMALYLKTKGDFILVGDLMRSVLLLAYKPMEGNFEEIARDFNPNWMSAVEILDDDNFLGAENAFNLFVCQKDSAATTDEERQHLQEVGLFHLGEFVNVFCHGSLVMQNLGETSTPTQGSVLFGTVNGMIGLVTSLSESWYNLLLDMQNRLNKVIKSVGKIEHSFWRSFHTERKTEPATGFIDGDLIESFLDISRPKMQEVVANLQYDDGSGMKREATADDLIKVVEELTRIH

| SMILES | DC50 | Dmax |
| --- | --- | --- |
| O=C1CCC(N2Cc3c(ccc4c3OCC43CCN(Cc4cc(F)cc5ccoc45)CC3)C2=O)C(=O)N1 (stereo not shown) [Compound A117, 3-(1′-((5-fluorobenzofuran-7-yl)methyl)-6-oxo-6,8-dihydro-2H,7H-spiro[furo[2,3-e]isoindole-3,4′-piperidin]-7-yl)piperidine-2,6-dione] | 0.2 to 0.5 µM | 40 to 60% |
| O=C1CCC(N2Cc3c(ccc4c3OCC43CCN(Cc4ccc(F)c5ccoc45)CC3)C2=O)C(=O)N1 (stereo not shown) [Compound A118, 3-(1′-((4-fluorobenzofuran-7-yl)methyl)-6-oxo-6,8-dihydro-2H,7H-spiro[furo[2,3-e]isoindole-3,4′-piperidin]-7-yl)piperidine-2,6-dione] | > 0.5 µM | 40 to 60% |
| O=C1CCC(N2Cc3c(ccc4c3OCC43CCN(Cc4cccc5occc45)CC3)C2=O)C(=O)N1 (stereo not shown) [Compound A119, 3-(1′-(benzofuran-4-ylmethyl)-6-oxo-6,8-dihydro-2H,7H-spiro[furo[2,3-e]isoindole-3,4′-piperidin]-7-yl)piperidine-2,6-dione] | < 0.05 µM | 60 to 80% |
| O=C1CCC(N2Cc3c(ccc4c3OCC43CCN(Cc4ccc5occc5c4)CC3)C2=O)C(=O)N1 (stereo not shown) [Compound A120, 3-(1′-(benzofuran-5-ylmethyl)-6-oxo-6,8-dihydro-2H,7H-spiro[furo[2,3-e]isoindole-3,4′-piperidin]-7-yl)piperidine-2,6-dione] | < 0.05 µM | 60 to 80% |
| Cc1cc2c(CN3CCC4(CC3)COc3c4ccc4c3CN(C3CCC(=O)NC3=O)C4=O)cccc2[nH]1 (stereo not shown) [Compound A121, 3-(1′-((2-methyl-1H-indol-4-yl)methyl)-6-oxo-6,8-dihydro-2H,7H-spiro[furo[2,3-e]isoindole-3,4′-piperidin]-7-yl)piperidine-2,6-dione] | < 0.05 µM | 60 to 80% |
| O=C1CCC(N2Cc3c(ccc4c3OCC43CCN(CC4CCN(c5ccccc5)CC4)CC3)C2=O)C(=O)N1 (stereo not shown) [Compound A123, 3-(6-oxo-1′-((1-phenylpiperidin-4-yl)methyl)-6,8-dihydro-2H,7H-spiro[furo[2,3-e]isoindole-3,4′-piperidin]-7-yl)piperidine-2,6-dione] | > 0.5 µM | 40 to 60% |
| O=C1CCC(N2Cc3c(ccc4c3OCC43CCN(Cc4cccc(OCc5ccccn5)c4)CC3)C2=O)C(=O)N1 (stereo not shown) [Compound A135, 3-(6-oxo-1′-(3-(pyridin-2-ylmethoxy)benzyl)-6,8-dihydro-2H,7H-spiro[furo[2,3-e]isoindole-3,4′-piperidin]-7-yl)piperidine-2,6-dione] | < 0.05 µM | 60 to 80% |
| O=C1CCC(N2Cc3c(ccc4c3OCC43CCN(Cc4ccc(F)c5[nH]ncc45)CC3)C2=O)C(=O)N1 (stereo not shown) [Compound A136, 3-(1′-((7-fluoro-1H-indazol-4-yl)methyl)-6-oxo-6,8-dihydro-2H,7H-spiro[furo[2,3-e]isoindole-3,4′-piperidin]-7-yl)piperidine-2,6-dione] | < 0.05 µM | 40 to 60% |
| O=C1CCC(N2Cc3c(ccc4c3OCC43CCN(Cc4c(F)ccc5[nH]ccc45)CC3)C2=O)C(=O)N1 (stereo not shown) [Compound A137, 3-(1′-((5-fluoro-1H-indol-4-yl)methyl)-6-oxo-6,8-dihydro-2H,7H-spiro[furo[2,3-e]isoindole-3,4′-piperidin]-7-yl)piperidine-2,6-dione] | < 0.05 µM | 60 to 80% |
| O=C1CCC(N2Cc3c(ccc4c3OCC43CCN(CC4CCN(c5ccccc5)C4)CC3)C2=O)C(=O)N1 (stereo not shown) [Compound A138, 3-(6-oxo-1′-((1-phenylpyrrolidin-3-yl)methyl)-6,8-dihydro-2H,7H-spiro[furo[2,3-e]isoindole-3,4′-piperidin]-7-yl)piperidine-2,6-dione] | > 0.5 µM | 40 to 60% |
| O=C1CCC(N2Cc3c(ccc4c3OCC43CCN(Cc4cccc(Cn5ccnc5)c4)CC3)C2=O)C(=O)N1 (stereo not shown) [Compound A139, 3-(1′-(3-((1H-imidazol-1-yl)methyl)benzyl)-6-oxo-6,8-dihydro-2H,7H-spiro[furo[2,3-e]isoindole-3,4′-piperidin]-7-yl)piperidine-2,6-dione] | 0.2 to 0.5 µM | 60 to 80% |
| Cn1ncc2cc(F)c(CN3CCC4(CC3)COc3c4ccc4c3CN(C3CCC(=O)NC3=O)C4=O)cc21 (stereo not shown) [Compound A140, 3-(1′-((5-fluoro-1-methyl-1H-indazol-6-yl)methyl)-6-oxo-6,8-dihydro-2H,7H-spiro[furo[2,3-e]isoindole-3,4′-piperidin]-7-yl)piperidine-2,6-dione] | > 0.5 µM | 40 to 60% |
| O=C1CCC(N2Cc3c(ccc4c3OCC43CCN(Cc4cccc5[nH]cc(Cl)c45)CC3)C2=O)C(=O)N1 (stereo not shown) [Compound A141, 3-(1′-((3-chloro-1H-indol-4-yl)methyl)-6-oxo-6,8-dihydro-2H,7H-spiro[furo[2,3-e]isoindole-3,4′-piperidin]-7-yl)piperidine-2,6-dione] | < 0.05 µM | 60 to 80% |
| O=C1CCC(N2Cc3c(ccc4c3OCC43CCN(Cc4ccc5c(Cl)n[nH]c5c4)CC3)C2=O)C(=O)N1 (stereo not shown) [Compound A142, 3-(1′-((3-chloro-1H-indazol-6-yl)methyl)-6-oxo-6,8-dihydro-2H,7H-spiro[furo[2,3-e]isoindole-3,4′-piperidin]-7-yl)piperidine-2,6-dione] | 0.05 to 0.2 µM | 60 to 80% |
| Cc1ccc2[nH]ncc2c1CN1CCC2(CC1)COc1c2ccc2c1CN(C1CCC(=O)NC1=O)C2=O (stereo not shown) [Compound A143, 3-(1′-((5-methyl-1H-indazol-4-yl)methyl)-6-oxo-6,8-dihydro-2H,7H-spiro[furo[2,3-e]isoindole-3,4′-piperidin]-7-yl)piperidine-2,6-dione] | < 0.05 µM | 60 to 80% |
| Cn1nccc1-c1cccc(CN2CCC3(CC2)COc2c3ccc3c2CN(C2CCC(=O)NC2=O)C3=O)c1 (stereo not shown) [Compound A144, 3-(1′-(3-(1-methyl-1H-pyrazol-5-yl)benzyl)-6-oxo-6,8-dihydro-2H,7H-spiro[furo[2,3-e]isoindole-3,4′-piperidin]-7-yl)piperidine-2,6-dione] | 0.2 to 0.5 µM | 40 to 60% |
| CC(C)n1cc(-c2cccc(CN3CCC4(CC3)COc3c4ccc4c3CN(C3CCC(=O)NC3=O)C4=O)c2)cn1 (stereo not shown) [Compound A146, 3-(1′-(3-(1-isopropyl-1H-pyrazol-4-yl)benzyl)-6-oxo-6,8-dihydro-2H,7H-spiro[furo[2,3-e]isoindole-3,4′-piperidin]-7-yl)piperidine-2,6-dione] | < 0.05 µM | 60 to 80% |
| O=C1CCC(N2Cc3c(ccc4c3OCC43CCN(Cc4cccc(-c5cnn(C6CCOCC6)c5)c4)CC3)C2=O)C(=O)N1 (stereo not shown) [Compound A147, 3-(6-oxo-1′-(3-(1-(tetrahydro-2H-pyran-4-yl)-1H-pyrazol-4-yl)benzyl)-6,8-dihydro-2H,7H-spiro[furo[2,3-e]isoindole-3,4′-piperidin]-7-yl)piperidine-2,6-dione] | < 0.05 µM | 60 to 80% |
| Cn1cc(-c2ccc(CN3CCC4(CC3)COc3c4ccc4c3CN(C3CCC(=O)NC3=O)C4=O)cc2)cn1 (stereo not shown) [Compound A148, 3-(1′-(4-(1-methyl-1H-pyrazol-4-yl)benzyl)-6-oxo-6,8-dihydro-2H,7H-spiro[furo[2,3-e]isoindole-3,4′-piperidin]-7-yl)piperidine-2,6-dione] | < 0.05 µM | 60 to 80% |
| O=C1CCC(N2Cc3c(ccc4c3OCC43CCN(Cc4ccccc4-n4ccnc4)CC3)C2=O)C(=O)N1 (stereo not shown) [Compound A149, 3-(1′-(2-(1H-imidazol-1-yl)benzyl)-6-oxo-6,8-dihydro-2H,7H-spiro[furo[2,3-e]isoindole-3,4′-piperidin]-7-yl)piperidine-2,6-dione] | > 0.5 µM | < 40% |
| O=C1CCC(N2Cc3c(ccc4c3OCC43CCN(Cc4cccc(-c5ncon5)c4)CC3)C2=O)C(=O)N1 (stereo not shown) [Compound A150, 3-(1′-(3-(1,2,4-oxadiazol-3-yl)benzyl)-6-oxo-6,8-dihydro-2H,7H-spiro[furo[2,3-e]isoindole-3,4′-piperidin]-7-yl)piperidine-2,6-dione] | 0.05 to 0.2 µM | 60 to 80% |
| Cc1nnc(-c2cccc(CN3CCC4(CC3)COc3c4ccc4c3CN(C3CCC(=O)NC3=O)C4=O)c2)o1 (stereo not shown) [Compound A151, 3-(1′-(3-(5-methyl-1,3,4-oxadiazol-2-yl)benzyl)-6-oxo-6,8-dihydro-2H,7H-spiro[furo[2,3-e]isoindole-3,4′-piperidin]-7-yl)piperidine-2,6-dione] | 0.2 to 0.5 µM | 40 to 60% |
| O=C1CCC(N2Cc3c(ccc4c3OCC43CCN(Cc4cccc5c4NC(=O)C5)CC3)C2=O)C(=O)N1 (stereo not shown) [Compound A152, 3-(6-oxo-1′-((2-oxoindolin-7-yl)methyl)-6,8-dihydro-2H,7H-spiro[furo[2,3-e]isoindole-3,4′-piperidin]-7-yl)piperidine-2,6-dione] | 0.05 to 0.2 µM | 60 to 80% |
| O=C1CCC(N2Cc3c(ccc4c3OCC43CCN(Cc4ccc5c(c4)NC(=O)CO5)CC3)C2=O)C(=O)N1 (stereo not shown) [Compound A153, 3-(6-oxo-1′-((3-oxo-3,4-dihydro-2H-benzo[b][1,4]oxazin-6-yl)methyl)-6,8-dihydro-2H,7H-spiro[furo[2,3-e]isoindole-3,4′-piperidin]-7-yl)piperidine-2,6-dione] | 0.05 to 0.2 µM | 60 to 80% |
| O=C1CCC(N2Cc3c(ccc4c3OCC43CCN(Cc4ccc5ccn(Cc6cccnc6)c5c4)CC3)C2=O)C(=O)N1 (stereo not shown) [Compound A154, 3-(6-oxo-1′-((1-(pyridin-3-ylmethyl)-1H-indol-6-yl)methyl)-6,8-dihydro-2H,7H-spiro[furo[2,3-e]isoindole-3,4′-piperidin]-7-yl)piperidine-2,6-dione] | 0.2 to 0.5 µM | 60 to 80% |
| O=C1CCC(N2Cc3c(ccc4c3OCC43CCN(Cc4ccccc4Cn4cccn4)CC3)C2=O)C(=O)N1 (stereo not shown) [Compound A155, 3-(1′-(2-((1H-pyrazol-1-yl)methyl)benzyl)-6-oxo-6,8-dihydro-2H,7H-spiro[furo[2,3-e]isoindole-3,4′-piperidin]-7-yl)piperidine-2,6-dione] | > 0.5 µM | 40 to 60% |
